In patent publication US7431936B2, “Proteins involved in cytoadhesion of plasmodium falciparum ring-stage-infected erythrocytes, antibodies which bind to the proteins, and methods for detecting infection, stage of infection and vaccines for protecting against infection” (Institut Pasteur, priority 2000, dated 2008):

Assays:
[1] = tested on: ring-stage PA^CSA IE cytoadhesion to SBEC ID; test: Protease sensitivity of ring-stage IE cytoadhesion; type: cell-based, P. falciparum; conditions: protease concentration of 100 μg/ml (FIG. 3C)
Description: The protease sensitivity of ring-stage IE cytoadhesion was analyzed using 5 μl of packed PA^CSA IE (8 hours post-invasion). IE were incubated with 10 or 100 μg/ml of trypsin TPCK (Signa) or 100 µg/ml of -chymotrypsin TLCK (Sigma) for 30 minutes at 37° C. The digestion was topped by adding culture medium containing 10% human plasma. The cells were then washed in cytoadhesion medium and allowed to cytoadhere to SBEC ID, as previously described, using untreated PA^CSA as a control.

[2] = tested on: ring-stage IE^CSA cytoadhesion to SBEC 1D; test: Cytoadhesion inhibition assay of IE^CSA on SBEC 1D; type: cell-based, P. falciparum; conditions: for sensitivity of ring-stage IE^CSA cytoadhesion to inhibitor: 0.1 mg.ml of CSA, or prior treating of target cells with 1 U/ml Case ABC, until the 16th hour after invasion (FIG. 2A); for time after invasion at which inhibition was maximal: CSA and Case ABC tested every 4 hours throughout the cycle (FIG. 2A); for inhibitory effect on ring-stage IE binding to SBEC 1D: ring-stage PA^CSA IE 8 hours post-invasion, glycosaminoglycan present or target cells enzyme-treated (FIG. 2B), thrombospondin data not shown
Description: Gelatin-enriched preparations of mature-stage IE were resuspended at a concentration of 5×10^6 IE/ml in cytoadhesion medium at pH 6.8. Cytoadhesion microassays were then performed on 12-well IFA slides (Institut Pasteur, Paris) as previously desribed^15.
Ring-stage cytoadhesion assays were performed with endothelial cells as described above and with placental cryosections as previously described^11, with 1 to 10% parasitaemia (a 1×10^7 IE/ml suspension).
For cytoadhesion inhibition assays, the IE were incubated with SBEC in the presence of 2.5 μg/ml thrombospondin, 0.1 mg/ml soluble CSA, dermatan sulphate (CSB), chondroitin-6-sulphate (CSC), keratin sulphate (Ker), byaluronic acid (HA), heparin (Hep) (Fluka, France), or with SBEC previously incubated for 1 hour at 37° C. with 1 U/ml Case (Fluka, France), 1 to 10 U/ml heparinase III (Hepase III (Sigma, France) or 5 μg/ml anti-CD36 FA6-152 Mab (gift from Dr. Edelman). Inhibition assays were also carried out in the presence of sera obtained from Senegalese and Cameroonian patients living in areas of endemic malaria. The sera were obtained from primigravida and multigravida women, an adult and a child, absorbed onto O^+ human blood and SBEC ID, and tested at a dilution of 1/20. The results were compared to those for cytoadhesion in the presence of a 1/20 dilution of a pool of control sera from volunteers who had never contacted malaria.

For -chymotrypsin, the “inhibition of ring-stage IE adhesion after protease treatment of IE” value [1] was “substantially inhibited”.

With chondroitinase ABC [Case] the “sensitivity of ring-stage IE^CSA cytoadhesion to inhibitor” value [2] was “insensitive”, the “time after invasion at which inhibition was maximal” value [2] was 24 h and the “inhibitory effect on ring-stage IE binding to SBEC 1D” value (from here on “inhibitory effect”) [2] was “no significant inhibitory activity”.

“Thrombospondin: mature-stage IE adhesion receptor protein tested at 2.5 μg/ml” was tested, and the “inhibitory effect” value [2] was “no effect”.

For dermatan-sulphate [CSB], the “inhibitory effect” value [2] was “not specific”.

In the case of hyaluronate lyase, the “inhibitory effect” value [2] is reported as “low level of inhibitory activity”.

In the case of chondroitin-sulphate A [CSA], the “sensitivity of ring-stage IE^CSA cytoadhesion to inhibitor” value [2] is reported as “insensitive” and the “time after invasion at which inhibition was maximal” value [2] is reported as 24 h.

heparin was tested, and the “inhibition of ring-stage cytoadhesion” value ([2]; Heparin (100 m/ml) and heparinase, SBEC 1D (FIG. 2B)) was “about 50%”.

Hyaluronic acid was tested, and the “inhibitory effect” value [2] was “no activity”.

B1: trypsin: protease used to treat ring-stage IE (protein, UniProt P00760 24-246, looked up)
Serine protease 1: IVGGYTCGANTVPYQVSLNSGYHFCGGSLINSQWVVSAAHCYKSGIQVRLGEDNINVVEGNEQFISASKSIVHPSYNSNTLNNDIMLIKLKSAASLNSRVASISLPTSCASAGTQCLISGWGNTKSSGTSYPDVLKCLKAPILSDSSCKSAYPGQITSNMFCAGYLEGGKDSCQGDSGGPVVCSGKLQGIVSWGSGCAQKNKPGVYTKVCNYVSWIKQTIASN
modifications: TPCK-treated
notes: protease used to treat ring-stage IE
With B1 the “inhibition of ring-stage IE adhesion after protease treatment of IE” value [1] was “substantially inhibited”.
